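Here, GI50 denotes the concentration required for 50% inhibition of growth. TGI: concentration producing complete growth inhibition.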
Key:
Experiment in all cases: DTP human tumour cell line panel, 384-well format
SK-MEL-28 melanoma = test system: SK-MEL-28 melanoma
NCI-H226 lung = test system: NCI-H226 lung
CAKI-1 renal = test system: CAKI-1 renal
HT29 colon = test system: HT29 colon
SF-539 CNS = test system: SF-539 CNS
SN12C renal = test system: SN12C renal
K-562 leukemia = test system: K-562 leukemia
SR leukemia = test system: SR leukemia
DU-145 prostate = test system: DU-145 prostate
NCI-H23 lung = test system: NCI-H23 lung
MCF7 breast = test system: MCF7 breast
MDA-MB-231 breast = test system: MDA-MB-231 breast
COLO 205 colon = test system: COLO 205 colon
SNB-75 CNS = test system: SNB-75 CNS
SK-OV-3 ovarian = test system: SK-OV-3 ovarian
SNB-19 CNS = test system: SNB-19 CNS
NCI-H322M lung = test system: NCI-H322M lung
HCT-15 colon = test system: HCT-15 colon
MOLT-4 leukemia = test system: MOLT-4 leukemia
UO-31 renal = test system: UO-31 renal
NCI-H460 NSCLC = test system: NCI-H460 NSCLC
T-47D breast = test system: T-47D breast
NCI-H522 lung = test system: NCI-H522 lung
HOP-62 NSCLC = test system: HOP-62 NSCLC
U251 glioblastoma = test system: U251 glioblastoma
SW-620 colon = test system: SW-620 colon
HCC-2998 colon = test system: HCC-2998 colon
HS 578T breast = test system: HS 578T breast
LOX IMVI melanoma = test system: LOX IMVI melanoma
BT-549 breast = test system: BT-549 breast
CCRF-CEM leukemia = test system: CCRF-CEM leukemia
NCI/ADR-RES ovarian = test system: NCI/ADR-RES ovarian
RXF 393 renal = test system: RXF 393 renal
SF-295 CNS = test system: SF-295 CNS
SK-MEL-5 melanoma = test system: SK-MEL-5 melanoma
EKVX NSCLC = test system: EKVX NSCLC
IGROV1 ovarian = test system: IGROV1 ovarian
HCT-116 colon = test system: HCT-116 colon
A498 renal = test system: A498 renal
HL-60(TB) leukemia = test system: HL-60(TB) leukemia
SF-268 CNS = test system: SF-268 CNS
OVCAR-3 ovarian = test system: OVCAR-3 ovarian
RPMI-8226 leukemia = test system: RPMI-8226 leukemia
OVCAR-4 ovarian = test system: OVCAR-4 ovarian
UACC-62 melanoma = test system: UACC-62 melanoma
A549 NSCLC = test system: A549 NSCLC
OVCAR-8 ovarian = test system: OVCAR-8 ovarian
KM12 colon = test system: KM12 colon
UACC-257 melanoma = test system: UACC-257 melanoma
786-0 renal = test system: 786-0 renal
TK-10 renal = test system: TK-10 renal
M14 melanoma = test system: M14 melanoma
ACHN renal = test system: ACHN renal
MALME-3M melanoma = test system: MALME-3M melanoma
PC-3 prostate = test system: PC-3 prostate
MDA-MB-468 breast = test system: MDA-MB-468 breast
HOP-92 NSCLC = test system: HOP-92 NSCLC
MDA-MB-435 melanoma = test system: MDA-MB-435 melanoma

Cc1nc(-c2cn3c(n2)-c2ccc(-c4cnn(C(C)(C)C(N)=O)c4)cc2OCC3)n(C(C)C)n1
GI50 (SK-MEL-28 melanoma): 0.484 µM
TGI (SK-MEL-28 melanoma): > 100 µM
GI50 (NCI-H226 lung): 2.82 µM
TGI (NCI-H226 lung): 41 µM
GI50 (CAKI-1 renal): 0.342 µM
TGI (CAKI-1 renal): 31.8 µM
GI50 (HT29 colon): 0.085 µM
TGI (HT29 colon): 16.6 µM
GI50 (SF-539 CNS): 1.09 µM
TGI (SF-539 CNS): 20.2 µM
GI50 (SN12C renal): 0.27 µM
TGI (SN12C renal): > 100 µM
GI50 (K-562 leukemia): 12.9 µM
TGI (K-562 leukemia): 84.8 µM
GI50 (SR leukemia): 0.785 µM
TGI (SR leukemia): 2.53 µM
GI50 (DU-145 prostate): 2.16 µM
TGI (DU-145 prostate): 17.8 µM
GI50 (NCI-H23 lung): 11.3 µM
TGI (NCI-H23 lung): 50.5 µM
GI50 (MCF7 breast): 0.0152 µM
TGI (MCF7 breast): 15.1 µM
GI50 (MDA-MB-231 breast): 5.79 µM
TGI (MDA-MB-231 breast): > 100 µM
GI50 (COLO 205 colon): 0.396 µM
TGI (COLO 205 colon): 25.4 µM
GI50 (SNB-75 CNS): 0.221 µM
TGI (SNB-75 CNS): 15.3 µM
GI50 (SK-OV-3 ovarian): 0.0291 µM
TGI (SK-OV-3 ovarian): 1.95 µM
GI50 (SNB-19 CNS): 13.8 µM
TGI (SNB-19 CNS): > 100 µM
GI50 (NCI-H322M lung): 0.312 µM
TGI (NCI-H322M lung): 14.2 µM
GI50 (HCT-15 colon): 1.59 µM
TGI (HCT-15 colon): 23.6 µM
GI50 (MOLT-4 leukemia): 0.0746 µM
TGI (MOLT-4 leukemia): 1.12 µM
GI50 (UO-31 renal): 0.848 µM
TGI (UO-31 renal): > 100 µM
GI50 (NCI-H460 NSCLC): 0.134 µM
TGI (NCI-H460 NSCLC): 11.4 µM
GI50 (T-47D breast): < 0.01 µM
TGI (T-47D breast): 0.0399 µM
GI50 (NCI-H522 lung): 3.56 µM
TGI (NCI-H522 lung): 27.3 µM
GI50 (HOP-62 NSCLC): 5.99 µM
TGI (HOP-62 NSCLC): 91.3 µM
GI50 (U251 glioblastoma): 3.56 µM
TGI (U251 glioblastoma): > 100 µM
GI50 (SW-620 colon): 12.5 µM
TGI (SW-620 colon): > 100 µM
GI50 (HCC-2998 colon): 0.831 µM
TGI (HCC-2998 colon): 14 µM
GI50 (HS 578T breast): 0.567 µM
TGI (HS 578T breast): 12.5 µM
GI50 (LOX IMVI melanoma): 1.99 µM
TGI (LOX IMVI melanoma): 15.4 µM
GI50 (BT-549 breast): 1.67 µM
TGI (BT-549 breast): 19.9 µM
GI50 (CCRF-CEM leukemia): 0.343 µM
TGI (CCRF-CEM leukemia): 13.7 µM
GI50 (NCI/ADR-RES ovarian): 13.2 µM
TGI (NCI/ADR-RES ovarian): 52.7 µM
GI50 (RXF 393 renal): 1.99 µM
TGI (RXF 393 renal): 11.3 µM
GI50 (SF-295 CNS): 0.95 µM
TGI (SF-295 CNS): 9 µM
GI50 (SK-MEL-5 melanoma): 1.26 µM
TGI (SK-MEL-5 melanoma): 9.2 µM
GI50 (EKVX NSCLC): 0.756 µM
TGI (EKVX NSCLC): 15.4 µM
GI50 (IGROV1 ovarian): 0.0125 µM
TGI (IGROV1 ovarian): 0.0541 µM
GI50 (HCT-116 colon): 1.92 µM
TGI (HCT-116 colon): 18.3 µM
GI50 (A498 renal): 1.96 µM
TGI (A498 renal): 12.4 µM
GI50 (HL-60(TB) leukemia): < 0.01 µM
TGI (HL-60(TB) leukemia): 0.115 µM
GI50 (SF-268 CNS): 3.31 µM
TGI (SF-268 CNS): 29.5 µM
GI50 (OVCAR-3 ovarian): 0.398 µM
TGI (OVCAR-3 ovarian): 9.21 µM
GI50 (RPMI-8226 leukemia): 3.21 µM
TGI (RPMI-8226 leukemia): 13.3 µM
GI50 (OVCAR-4 ovarian): 15.2 µM
TGI (OVCAR-4 ovarian): 93.7 µM
GI50 (UACC-62 melanoma): 0.71 µM
TGI (UACC-62 melanoma): 7.5 µM
GI50 (A549 NSCLC): 1.43 µM
TGI (A549 NSCLC): 14.7 µM
GI50 (OVCAR-8 ovarian): 3.01 µM
TGI (OVCAR-8 ovarian): 84 µM
GI50 (KM12 colon): 3.72 µM
TGI (KM12 colon): 17 µM
GI50 (UACC-257 melanoma): 7.34 µM
TGI (UACC-257 melanoma): 40.7 µM
GI50 ([…]-0 renal): 2.6 µM
TGI (786-0 renal): 87.3 µM
GI50 (TK-10 renal): 0.387 µM
TGI (TK-10 renal): 19.2 µM
GI50 (M14 melanoma): 7.41 µM
TGI (M14 melanoma): 32.1 µM
GI50 (ACHN renal): 1.36 µM
TGI (ACHN renal): > 100 µM
GI50 (MALME-3M melanoma): 0.164 µM
TGI (MALME-3M melanoma): 4.21 µM
GI50 (PC-3 prostate): 0.396 µM
TGI (PC-3 prostate): 12.2 µM
GI50 (MDA-MB-468 breast): 0.147 µM
TGI (MDA-MB-468 breast): 1.34 µM
GI50 (HOP-92 NSCLC): 0.226 µM
TGI (HOP-92 NSCLC): 29.9 µM
GI50 (MDA-MB-435 melanoma): 6.33 µM
TGI (MDA-MB-435 melanoma): 53.2 µM
